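Five concentrations, 48 hours, 96-well plates. Here, GI50 denotes the concentration required for 50% inhibition of growth.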 Calls of active or inactive are those of the source. Cut-off read from the data, not from the text of the source: active = GI50 up to about 1.1 µM and inactive = higher.
Columns and labels:
Assay in all cases: inhibition of tumour cell growth, NCI panel, 48 h
DLD-1 = system: DLD-1
DMS-114 = system: DMS-114
DMS-273 = system: DMS-273
HOP-18 = system: HOP-18
KM-20L2 = system: KM-20L2
LXFL 529 = system: LXFL 529
SNB-78 = system: SNB-78
RXF 631 = system: RXF 631
XF498 = system: XF498

For `COc1ccc(/C=C/C(=O)c2c(-c3ccccc3)nn(C)c(=O)c2N2CC2C)cc1` (configuration not stated), the GI50 (DLD-1) was 26.1 µM (inactive), the GI50 (DMS-114) was 24.7 µM (inactive) and the GI50 (DMS-273) was 21 µM (inactive). The GI50 (HOP-18) was 27.5 µM (inactive), the GI50 (KM-20L2) was 23.9 µM (inactive) and the GI50 (LXFL 529) was 25.1 µM (inactive). The GI50 (SNB-78) was 30.1 µM (inactive).

For `CC1=C(C(=O)Nc2ccccc2)C(c2ccc([N+](=O)[O-])cc2)C(C(=O)Nc2ccccc2)=C(C)N1`, the GI50 (DLD-1) was 26.6 µM (inactive), the GI50 (DMS-114) was 20.7 µM (inactive) and the GI50 (DMS-273) was 24.4 µM (inactive). The GI50 (KM-20L2) was 18.3 µM (inactive), the GI50 (LXFL 529) was 17.4 µM (inactive) and the GI50 (RXF 631) was 21.2 µM (inactive). The GI50 (SNB-78) was 33.8 µM (inactive) and the GI50 (XF498) was 15.1 µM (inactive).

In the case of `Cc1cc2c(cc1C)[n+]([O-])c(-c1c(Cl)cccc1Cl)c(N)[n+]2[O-]`, the GI50 (DLD-1) was 30.7 µM (inactive), the GI50 (DMS-114) was 22.6 µM (inactive) and the GI50 (DMS-273) was 32.1 µM (inactive). The GI50 (HOP-18) was 18.9 µM (inactive), the GI50 (KM-20L2) was 40 µM (inactive) and the GI50 (LXFL 529) was 31.6 µM (inactive). The GI50 (RXF 631) was 18.2 µM (inactive) and the GI50 (SNB-78) was 43.9 µM (inactive).

In the case of `O=C1OC(CC(=O)c2ccccc2Cl)C(Cl)=C1Cl` (configuration not stated), the GI50 (DLD-1) was > 100 µM (inactive), the GI50 (DMS-114) was > 100 µM (inactive) and the GI50 (HOP-18) was > 100 µM (inactive). The GI50 (LXFL 529) was > 100 µM (inactive), the GI50 (RXF 631) was 62.4 µM (inactive) and the GI50 (SNB-78) was 33 µM (inactive).

In the case of `CS/C(=N\C(=S)Nc1ccccc1)Nc1ccccc1`, the GI50 (DMS-114) was 0.743 µM (active), the GI50 (DMS-273) was > 10 µM (inactive) and the GI50 (KM-20L2) was 31 µM (inactive). The GI50 (SNB-78) was 40.3 µM (inactive).

With `COC1OC(C)C(OC(=O)C(C)(C)C)C(C)(O)C1O` (configuration not stated) the GI50 (DLD-1) was > 100 µM (inactive), the GI50 (DMS-273) was > 100 µM (inactive) and the GI50 (HOP-18) was > 100 µM (inactive). The GI50 (KM-20L2) was > 100 µM (inactive), the GI50 (LXFL 529) was > 100 µM (inactive) and the GI50 (SNB-78) was 81.5 µM (inactive). For the same compound, the GI50 (XF498) was > 100 µM (inactive).

`C=CCOC(C)n1c(C)cc(=O)n(C(C)OCC=C)c1=O` (configuration not stated) was tested, and the GI50 (DLD-1) was > 100 µM (inactive), the GI50 (DMS-114) was > 100 µM (inactive) and the GI50 (DMS-273) was > 100 µM (inactive). For the same compound, the GI50 (HOP-18) was > 100 µM (inactive), the GI50 (KM-20L2) was > 100 µM (inactive) and the GI50 (LXFL 529) was > 100 µM (inactive). For the same compound, the GI50 (SNB-78) was > 100 µM (inactive).

`Nc1nc(N)c(N=O)c(Nc2ccc(Br)cc2)n1` was tested, and the GI50 (DLD-1) was 10.4 µM (inactive), the GI50 (DMS-114) was 21.8 µM (inactive) and the GI50 (DMS-273) was 17.5 µM (inactive). The GI50 (HOP-18) was 11.2 µM (inactive), the GI50 (KM-20L2) was 25.3 µM (inactive) and the GI50 (LXFL 529) was 15.3 µM (inactive). For the same compound, the GI50 (SNB-78) was 41.5 µM (inactive) and the GI50 (XF498) was 18.8 µM (inactive).

For `CCOC(=O)NC(=O)c1cn(CCN2CCN(C(=O)NCCCCCCNC(=O)N3CCN(CCn4cc(C(=O)NC(=O)OCC)c(=O)[nH]c4=O)CC3)CC2)c(=O)[nH]c1=O`, the GI50 (DMS-114) was > 100 µM (inactive), the GI50 (DMS-273) was > 100 µM (inactive) and the GI50 (HOP-18) was > 100 µM (inactive). For the same compound, the GI50 (KM-20L2) was > 100 µM (inactive), the GI50 (LXFL 529) was > 100 µM (inactive) and the GI50 (RXF 631) was > 100 µM (inactive). The GI50 (SNB-78) was > 100 µM (inactive) and the GI50 (XF498) was > 100 µM (inactive).

For `COC(=O)C(CC(C)=O)CS(=O)(=O)CC(=O)C(=O)Nc1cccc([N+](=O)[O-])c1` (configuration not stated), the GI50 (DLD-1) was > 100 µM (inactive), the GI50 (DMS-114) was > 100 µM (inactive) and the GI50 (DMS-273) was > 100 µM (inactive). For the same compound, the GI50 (HOP-18) was > 100 µM (inactive), the GI50 (KM-20L2) was > 100 µM (inactive) and the GI50 (LXFL 529) was > 100 µM (inactive). The GI50 (RXF 631) was > 100 µM (inactive), the GI50 (SNB-78) was > 100 µM (inactive) and the GI50 (XF498) was 55.6 µM (inactive).

With `O=C(O)CCC(O)=C1S(=O)(=O)OCCOS1(=O)=O` the GI50 (DLD-1) was > 100 µM (inactive), the GI50 (DMS-114) was > 100 µM (inactive) and the GI50 (DMS-273) was > 100 µM (inactive). For the same compound, the GI50 (HOP-18) was > 100 µM (inactive), the GI50 (KM-20L2) was > 100 µM (inactive) and the GI50 (LXFL 529) was > 100 µM (inactive). The GI50 (SNB-78) was > 100 µM (inactive).

`COc1ccc(NS(=O)(=O)c2ccc(/N=C3\C=C(Nc4ccc(S(=O)(=O)Nc5ccc(OC)nn5)cc4)C(=O)c4ccccc43)cc2)nn1` was tested, and the GI50 (DLD-1) was 18.5 µM (inactive), the GI50 (DMS-114) was 26.5 µM (inactive) and the GI50 (DMS-273) was 14.9 µM (inactive). The GI50 (HOP-18) was 16 µM (inactive), the GI50 (KM-20L2) was 17.9 µM (inactive) and the GI50 (LXFL 529) was 22.2 µM (inactive). For the same compound, the GI50 (SNB-78) was 57 µM (inactive) and the GI50 (XF498) was 22.6 µM (inactive).

With `CC[C@](O)(C(=O)O)c1cc2n(c(=O)c1CO)Cc1cc3ccccc3nc1-2` the GI50 (DMS-114) was 0.025 µM (active), the GI50 (DMS-273) was 0.025 µM (active) and the GI50 (HOP-18) was 0.0436 µM (active). The GI50 (KM-20L2) was 0.0535 µM (active), the GI50 (LXFL 529) was 0.692 µM (active) and the GI50 (RXF 631) was 0.084 µM (active). For the same compound, the GI50 (XF498) was 0.0968 µM (active).

`COc1cc(/C=C\c2ccc(OC(C)=O)cc2)cc(OC)c1OC` was tested, and the GI50 (DLD-1) was 3.99 µM (inactive), the GI50 (DMS-114) was 3.33 µM (inactive) and the GI50 (DMS-273) was 0.887 µM (active). For the same compound, the GI50 (KM-20L2) was 25.9 µM (inactive), the GI50 (LXFL 529) was 6.1 µM (inactive) and the GI50 (RXF 631) was 17.7 µM (inactive). For the same compound, the GI50 (SNB-78) was 5.62 µM (inactive) and the GI50 (XF498) was 3.39 µM (inactive).
